ChEMBL document CHEMBL1152587, “Application of the McMurry coupling reaction in the synthesis of tri- and tetra-arylethylene analogues as potential cancer chemotherapeutic agents” (Bioorg Med Chem, 2009)

Assays:
[1] = Inhibition of bovine tubulin polymerization after 20 mins by turbidimetrically
[2] = test system: DU-145; experiment: Anticancer activity against human DU145 cells after 48 hrs by SRB assay; conditions: DU-145, 48 h

| Compound | IC50 [1] | GI50 [2] |
| --- | --- | --- |
| CC/C(=C(\c1ccccc1)c1ccc(OCCN(C)C)cc1)c1ccccc1 [TAMOXIFEN] | > 40000 nM |  |
| COc1ccc(/C=C\c2cc(OC)c(OC)c(OC)c2)cc1O [COMBRETASTATIN A4] |  | 2 nM |
